The numbers were not newly measured in patent US20030232369A1, “Molecular structure of RNA polymerase II” (priority 2002, published 2003), which cites them from elsewhere.

Series [1] deals with pol II.
For series [2], the system named is pol II. The following applies: relative to α-amanitin.

As to `CC[C@H](C)[C@@H]1NC(=O)CNC(=O)[C@@H]2Cc3c([nH]c4cc(O)ccc34)[S+]([O-])C[C@@H](NC(=O)CNC1=O)C(=O)N[C@@H](CC(N)=O)C(=O)N1C[C@H](O)C[C@H]1C(=O)N[C@@H]([C@@H](C)[C@@H](O)CO)C(=O)N2` (stereo in doubt) [α-amanitin], in the series with pol II [1], the effect on transcription result is “blocks both transcription initiation and elongation”; the “influence of α-amanitin binding on the affinity of pol II for nucleoside triphosphates” value is recorded as “little if any influence”. Also, the “rate of translocation of pol II on DNA” value with pol II [1] (after addition of α-amanitin to a transcribing pol II complex) is “reduced from several thousand to only a few”.
In the case of `CCC(C)C1NC(=O)CNC(=O)C2Cc3c([nH]c4cc(O)ccc34)[S+]([O-])CC(NC(=O)CNC1=O)C(=O)NC(CC(N)=O)C(=O)N1CC(O)CC1C(=O)NC(C(C)CC)C(=O)N2` (centres unmarked) [amanullin], the “reduction of inhibition (fold less inhibitory than α-amanitin)” value with pol II [2] was “about 4 fold”.
On to proamanullin, for which, in the series with pol II [2], the “reduction of inhibition (fold less inhibitory than α-amanitin)” value is reported as “about 20,000 fold”.
